# Results taken from patent US20250011719A1, “NEW METHOD FOR IMPROVING QUALITY OF PLATELETS” (SHANGHAI SYNVIDA BIOTECHNOLOGY CO. LTD., priority 2021, published 2025).
# Tests used:
# [1] = test system: human apheresis platelets; assay: Storage quality of human apheresis platelets at room temperature; format: cell-based; conditions: summary statement of the results of the examples; substance used individually
# Description: (§1) An appropriate amount of apheresis platelets was added to a 50 ml centrifuge tube (the volume should not exceed 15 ml/tube). The mouth of the 50 ml centrifuge tube was covered and fixed with a clinical platelet storage bag as a gas-permeable membrane, placed on a horizontal shaker. The speed of the shaker was determined according to the volume inside the tube, ensuring the platelets were fully shaken and fully exposed to oxygen for respiration without touching the gas-permeable membrane.
# This method can simulate the storage of clinical apheresis platelets in a laboratory environment and can be used for sampling and the sampling is completed. The collected apheresis platelet samples can be used for platelet counting, flow cytometry index detection, protein collection, platelet viability detection, ATP content detection and other purposes.
# [2] = test system: human apheresis platelets; assay: Mitochondrial potential difference (JC1/TMRM flow cytometry) of stored apheresis platelets; format: cell-based
# Description: as §1
# 9.1 Changes in platelet mitochondrial potential difference were detected by JC1 fluorescent dyes: A JC1 working solution was prepared according to conventional methods. Positive control platelets were treated with CCCP to reduce mitochondrial membrane potential, that is, the positive control. Sampled platelets were diluted to 10^8/ml. 25 μl of platelets was taken and added with 25 μl of JC1 working solution. After mixed and incubated at 37° C. in the dark for 30 minutes, a 200 μl of 1×JC1 staining buffer was added for detecting the fluorescence intensity on the machine. The relative ratio of red and green fluorescence was used to represent the ratio of mitochondrial depolarization.
# The platelet sampling and dilution were as described above. 50 μl Tyrodes's Buffer and 0.1 μl TMRM stock solution were added to a 50 μl dilution solution, incubated at 37° C. in the dark for 30 minutes, with 500 μl Tyrodes's Buffer added for detection on the machine. The fluorescence intensity of TMRM will red shift according to the change of mitochondrial potential difference. The fluorescence intensity was used to represent the level of mitochondrial potential difference.
# [3] = test system: human apheresis platelets; assay: Mitochondrial reactive oxygen species (Mitosox) of stored apheresis platelets; format: cell-based; conditions: for accumulation of intracellular reactive oxygen species: N-acetylcysteine 5 mM, Mesna 50 uM, glutathione 200 uM, 7th day of storage, vs control group; for mitochondrial reactive oxygen species levels: Dorsomorphin 2HCl 1 uM, 4 uM, AICAR 0.1 uM, 0.5 uM, 4th day of storage, vs control
# Description: as §1
# Using the conventional method, 25 μl platelets were diluted in equal proportions, added with 0.1 μl Mitosox reagent (5 mM) and incubated in the dark at 37° C. for 30 minutes, with 200 μl buffer added to detect the fluorescence intensity; stained the adherent cells: after centrifugation at 600 g for 5 minutes to remove the supernatant, the cells were resuspended in 200 μl Mitosox working solution, incubated at 37° C. in the dark for 30 minutes, centrifuged at 600 g for 5 minutes, washed twice with PBS and added with 200 μl PBS for resuspending and detecting the cells.
# [4] = test system: human apheresis platelets; assay: Platelet aggregation / responsiveness to agonists of stored apheresis platelets; format: cell-based
# Description: as §1
# By conventional methods, using a platelet aggregation instrument, 300 μl of 3×10^8 platelets/ml and the required […] were added to the aggregation tube and incubated at 37° C. for 3 minutes after gentle stirring. A baseline was established and the changes of an aggregation curve were observed within 5 minutes.
# [5] = test system: human apheresis platelets; assay: Platelet apoptosis (Annexin V flow cytometry) of stored apheresis platelets; format: cell-based; conditions: for apoptosis ratio of platelets: N-acetylcysteine 5 mM, Mesna 50 uM, glutathione 200 uM, 7th day of storage, vs control group; for apoptosis ratio: Dorsomorphin 2HCl 1 uM, 4 uM, AICAR 0.1 uM, 0.5 uM, 4th day of storage, vs control
# Description: as §1
# Platelets were sampled according to conventional methods, then the concentration of platelets was diluted to 10^8/ml with Tyrodes's Buffer. 25 μl of platelets in the experimental group and control group were added to new EP tubes. Each tube was added with 5 μl of 10×Binding Buffer, 2 μl of FITC labeled Annexin V and 18 μl of Tyrodes's Buffer to a total of 50 μl in the reaction system. After incubating at room temperature in the dark for 15 minutes, 200 μl 1×Binding Buffer was added for detection on the machine, with a tube of unlabeled platelets as a negative control. The platelets labeled with Annexin V were detected within one hour after labeling and the FITC-positive cell population was the platelets in the process of apoptosis.
# stored mouse platelets = assay: Transfusion of stored mouse PRP into WT mice; format: in vivo; conditions: mouse PRP stored in vitro 1 day with NMN 0.5 mM, NAC 5 mM, AMPKi 4 uM alone or combined; biotin-labeled, infused into WT mice; PBS control
# Description: (§2) Blood was taken from the abdominal aorta of mice. Apyrase (in a final concentration of 1 U/ml) and PGE1 (in a final concentration of 0.1 μg/ml) that can inhibit platelet aggregation was then added with to the whole blood, mixed quickly and centrifuged (1050 rpm, room temperature, 10 minutes). After two centrifuges, the upper plasma of the experimental group was sucked out, discarded and the platelet precipitate at the bottom was retained. The plasma of wild-type mice was evenly distributed to the platelet pellets of mice in the experimental group and wild-type group. The platelets were uniformly dispersed and suspended, and then preserved according to the method of human platelets.
# In platelet transfusions, it is undesirable for stored platelets to be rapidly cleared from circulation. To evaluate the effects of the above compounds on the quality of platelets stored in vivo, two mouse transfusion models were used. In the first model, stored human platelets were transfused into immunodeficient NCG (NOD-Prkdcem26Cd52Il2rgem 26Cd22/NjuCrl) mice. NMN+NAC+AMPKi (NMN 0.5 mM, NAC 5 mM, AMPKi 4 uM) or PBS as a control was added. Human platelet concentrates were stored for 6 days in vitro. They were then labeled with biotin and infused into NCG mice. […] However, platelet clearance was lower in the NMN+NAC+AMPKi group compared to the control group (FIG. 8B). In another group of models, mouse PRP was stored in vitro for 1 day, added with NMN, NAC, AMPK inhibitor or NMN+NAC+AMPK inhibitor (NMN 0.5 mM, NAC 5 mM, AMPKi 4 uM) or PBS as a control. They were then labeled with biotin and infused into WT mice.
# mouse platelets [6] = assay: Mouse ITP model (anti-CD42b antibody R300); format: in vivo, mice; conditions: intravenous, combination 1 μmol NMN, 10 μmol NAC, 8 nmol AMPKi, vs control group
# Description: WT mice were intravenously injected with NMN, NAC, AMPK inhibitor, or NMN+NAC+AMPK inhibitor. After 30 minutes, basal platelet counts were first determined from complete blood counts using a HEMAVET automated hematology analyzer. Mouse platelets were cleared by intravenous injection of 2 μg anti-CD42b monoclonal antibody R300 (purchased from Emfret). Orbital blood was collected at different time points to monitor platelet clearance and recovery.
# To evaluate the effects of NMN, NAC or AMPK inhibitor on platelet survival in ITP patients, an ITP mouse model was established by intravenous injection of a low dose of anti-CD42b antibody R300.
# [7] = test system: 293T cells stably transfected with CPT2, CPT2K79Q or CPT2K79R; assay: Electron microscopy of mitochondria in CPT2 and CPT2 mutant stable transfected cell lines treated with palmitoylcarnitine; format: cell-based; conditions: 4 hours
# From the text: A plasmid of pLVX-IRES-ZsGreen1 inserted with CPT2K79R, a plasmid of pLVX-IRES-ZsGreen1 inserted with CPT2K79Q, and a plasmid of pLVX-IRES-ZsGreen1 inserted with CPT2 were synthesized by Shanghai Sunny Biotechnology Co., Ltd. Lentiviral transfection, 293T cell infection, and stably transfected cell lines were all carried out by conventional methods.
# To further verify the correlation between CPT2K79 acetylation and the accumulation of acylcarnitine, three plasmids were constructed: wild-type CPT2, CPT2K79R mutation, and CPT2K79Q mutation. These three plasmids were packaged into lentiviruses using a three-plasmid system for infecting 293T cells. The exogenous genes were integrated into the host genome, and […] stable transfected cell lines were selected through flow cytometry sorting. CPT2K79R is a CPT2 molecule with the mutation of lysine at position 79 to arginine, abolishing acetylation at position 79. CPT2K79Q is a CPT2 molecule with the mutation of lysine at position 79 to glutamine, simulating acetylation at position 79.
# After treating CPT2 and CPT2 mutant stable transfected cell lines with acylcarnitine for 4 hours, the cells were fixed. Then electron microscopy was used to observe the status and structure of mitochondria in different cell lines treated with or without palmitoylcarnitine. […] In one embodiment, there were anomalies in the morphology and arrangement of mitochondrial cristae, and the cristae became disarrayed, fragmented and blurred, with bright areas appearing in the center of the mitochondria, indicating severe damage to the mitochondrial inner membrane structure.
# rat platelets = assay: Storage of rat platelet-rich plasma with added palmitoyl carnitine; format: cell-based, rats; conditions: palmitoyl carnitine 2 μM and 10 μM; days 1 and 2 of storage
# Description: Whole blood was obtained from wild-type rats and wild-type mice via abdominal aortic puncture, and platelet-rich plasmas (PRP) were prepared separately for rats and mice. Platelet storage experiments were conducted, with two additional experimental groups each receiving the addition of palmitoyl carnitine at different concentrations (2 μM and 10 μM). Platelet apoptosis ratio, mitochondrial ROS level and changes in mitochondrial membrane potential were measured during storage days 0-4.
# mouse platelets [8] = assay: Storage of mouse platelet-rich plasma with added palmitoyl carnitine; format: cell-based, mice; conditions: palmitoyl carnitine 2 μM and 10 μM; days 1 and 2 of storage; concentration-dependent trend
# Description: as §2, with “platelets. Whole blood was obtained from wild-type rats and wild-type mice via abdominal aortic puncture, and platelet-rich plasmas (PRP) were prepared separately for rats and mice. Platelet storage experiments were conducted, with two additional experimental groups each receiving the addition of palmitoyl carnitine at different concentrations (2 μM and 10 μM). Platelet apoptosis ratio, mitochondrial ROS level and changes in mitochondrial membrane potential were measured during storage days 0-4.” for “platelets.”
# [9] = N-acetylcysteine 5 mM, Mesna 50 uM, glutathione 200 uM, 7th day of storage
# [10] = added to freshly isolated platelets, second day of platelet storage, compared to the control group
# [11] = Dorsomorphin 2HCl 1 uM, 4 uM, AICAR 0.1 uM, 0.5 uM, 4th day of storage, vs control
compound,measurement,setting,value
OC(CNc1ccccc1)Cn1c2ccc(Br)cc2c2cc(Br)ccc21 (centres unmarked) [P7C3],quality of platelets,[1],significantly improve
N[C@@H](CCC(=O)N[C@@H](CS)C(=O)NCC(=O)O)C(=O)O [glutathione],mitochondrial membrane potential,[2]; [9],protected
same,accumulation of intracellular reactive oxygen species,[3],reduce
same,platelet responsiveness to stimuli,[4]; [9],protected
same,apoptosis ratio of platelets,[5],lower
"NC(=O)c1cccnc1 [NAM, nicotinamide]",quality of platelets,[1],significantly improve
CC(=O)N[C@@H](CS)C(=O)O [N-acetylcysteine],survival in vivo of stored platelets,stored mouse platelets,better than controls
same,platelet survival rate,mouse platelets [6],higher
same,recovery rate of platelet counts,mouse platelets [6],higher
same,mitochondrial membrane potential,[2]; [9],protected
same,quality of platelets,[1],significantly improved
same,accumulation of intracellular reactive oxygen species,[3],reduce
same,platelet responsiveness to stimuli,[4]; [9],protected
same,apoptosis ratio of platelets,[5],lower
"NC(=O)c1ccc[n+]([C@@H]2O[C@H](COP(=O)([O-])O)[C@@H](O)[C@H]2O)c1 [NMN, nicotinamide mononucleotide]",survival in vivo of stored platelets,stored mouse platelets,better than controls
same,platelet survival rate,mouse platelets [6],higher
same,recovery rate of platelet counts,mouse platelets [6],higher
same,quality of platelets,[1],significantly improved
"NC(=O)c1ccc[n+]([C@@H]2O[C@H](CO)[C@@H](O)[C@H]2O)c1 [NR, nicotinamide riboside]",quality of platelets,[1],significantly improve
CCCCCCCCCCCCCCCC(=O)OC(CC(=O)[O-])C[N+](C)(C)C (centres unmarked) [palmitoylcarnitine],effect on the mitochondrial status,"[7]; CPT2K79Q cell line, low concentrations of palmitoylcarnitine",particularly pronounced
same,effect on the mitochondrial status,"[7]; CPT2K79R cell line, low-dose palmitoylcarnitine",little effect
same,mitochondria (electron microscopy),"[7]; three cell lines, low concentrations of palmitoylcarnitine, vs group without palmitoylcarnitine",significantly worse
same,status of rat platelets,rat platelets,did not cause significant changes
same,mitochondrial membrane potential,[2]; [10],lower
same,levels of mitochondrial reactive oxygen species,[3]; [10],higher
same,status of mouse platelets,mouse platelets [8],effectively reduced
same,apoptosis rates,[5]; [10],higher
NC(=O)c1ncn([C@@H]2O[C@H](CO)[C@@H](O)[C@H]2O)c1N [AICAR],mitochondrial membrane potential,[2]; [11],significant decrease
same,mitochondrial reactive oxygen species levels,[3],elevation
same,platelet responsiveness to stimuli,[4]; [11],detrimental
same,apoptosis ratio,[5],increased
O=C(NCc1ccncc1)Nc1ccc(S(=O)(=O)N2CC3CCC(C2)O3)cc1 [SBI-797812],quality of platelets,[1],significantly improve
Cl.Cl.c1cc(-c2cnn3cc(-c4ccc(OCCN5CCCCC5)cc4)cnc23)ccn1 [Dorsomorphin 2HCl],survival in vivo of stored platelets,stored mouse platelets,better than controls
same,platelet survival rate,mouse platelets [6],higher
same,recovery rate of platelet counts,mouse platelets [6],higher
same,mitochondrial membrane potential,[2]; [11],varying degrees of improvement
same,quality of platelets,[1],significantly improved
same,mitochondrial reactive oxygen species levels,[3],varying degrees of improvement
same,platelet responsiveness to stimuli,[4]; [11],varying degrees of improvement
same,apoptosis ratio,[5],varying degrees of improvement
"O=S(=O)([O-])CCS.[Na+] [Mesna, sodium 2-mercaptoethane sulfonate]",mitochondrial membrane potential,[2]; [9],protected
same,accumulation of intracellular reactive oxygen species,[3],reduce
same,platelet responsiveness to stimuli,[4]; [9],protected
same,apoptosis ratio of platelets,[5],lower
